From patent US20240277695A1, “FOXO INHIBITORS FOR USE IN THE TREATMENT OF DISEASES CAUSED BY ABNORMAL PROCESSING OF TDP-43 AND/OR FUS PROTEINS” (Administración General de la Comunidad Autónoma de Euskadi, priority 2020, published 2024)

Tested on: human immortalized myoblasts (cell line 8220)
Assay: 2-deoxyglucose treatment during myoblast proliferation
Type: cell-based
Text: FIG. 2. Deficiency of TDP-43 or FUS curtails anaerobic glucose metabolism and induces pro-atrophic pathways in myoblasts. A-B-C, Metabolic switch during myogenesis. Myoblasts rely mainly on anaerobic glycolysis while differentiating myocytes and myotubes switch towards a more aerobic metabolism (n=6 experiments). D, shTDP-43 and shFUS-treated myoblasts display consistent reductions in basal glycolysis and glycolytic capacity (n=6 experiments). E, Levels of lactate are decreased in shTDP-43 and shFUS-treated myoblasts (n=3). F, Basal mitochondrial ATP production is slightly affected by TDP-43 or FUS silencing, however effects on spare respiratory capacity are variable (n=6 experiments). G, Immunofluorescence and immublot images of MyoD in 2dg-treated myoblasts. H, Immunostaining images showing the effect of 2dg on the number of MyHC-postive myotubes. I, Pro-atrophic pathways of the […] (UPS) are dramatically augmented in shTDP-43 and shFUS-treated myoblasts (n=3). ECAR, Extracellular Acidification Rate; OCR, Oxygen Consumption Rate: 2dg, 2-deoxyglucose. T-test, *p<0.05; **p<0.01.
Decreased levels of lactate in homogenates from shTDP-43 and shFUS-treated myoblasts when compared to those from shRNA-treated myoblasts corroborated defects in the anaerobic oxidation of glucose (FIG. 2E). […] The increased numbers of mitochondria, as observed by TEM and TOMM20 staining (FIG. 1F,G), may provide a compelling explanation for the increased aerobic potential of shTDP-43 treated myoblasts.
A poor metabolic fitness in muscle is often associated to the upregulation of protein degradation pathways and atrophy. Expression of the key muscle specific E3 ubiquitin ligases, muscle RING finger 1 (MuRF1) and muscle atrophy F-box (MAFbx)/Atrogin-1, are markers of the activation of ubiquitin/proteasome system and atrophy in skeletal muscle.

[1] = 2-DG during myoblast proliferation

`O=CC[C@@H](O)[C@H](O)[C@H](O)CO` [2-DG, 2-deoxyglucose] was tested, and the “activation of MYOD” value [1] was “reduced the activation of MYOD”, the “myogenic process (MyHC-positive myotubes)” value [1] was “stalled the myogenic process” and the “expression levels of MurF1 and Atrogin-1” value (2-DG treated myoblasts) was “mimicked the effects of TDP-43 and FUS silencing”.
